# Laboratory results reported in PubChem BioAssay (NCI).
#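 Compound exposure: 48 hours, 5 concentrations, 96-well plates. TGI: concentration producing complete growth inhibition.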
# Assays:
# Experiment in all cases: inhibition of tumour cell growth, NCI panel, 48 h
# UACC-257 melanoma = tested on: UACC-257 melanoma
# HL-60(TB) leukemia = tested on: HL-60(TB) leukemia
# UACC-62 melanoma = tested on: UACC-62 melanoma
# A549 NSCLC = tested on: A549 NSCLC
# SW-620 colon = tested on: SW-620 colon
# OVCAR-8 ovarian = tested on: OVCAR-8 ovarian
# NCI-H522 lung = tested on: NCI-H522 lung
# SNB-75 CNS = tested on: SNB-75 CNS
# NCI/ADR-RES ovarian = tested on: NCI/ADR-RES ovarian
# MDA-MB-231 breast = tested on: MDA-MB-231 breast
SMILES,TGI (UACC-257 melanoma) [µM],TGI (HL-60(TB) leukemia) [µM],TGI (UACC-62 melanoma) [µM],TGI (A549 NSCLC) [µM],TGI (SW-620 colon) [µM],TGI (OVCAR-8 ovarian) [µM],TGI (NCI-H522 lung) [µM],TGI (SNB-75 CNS) [µM],TGI (NCI/ADR-RES ovarian) [µM],TGI (MDA-MB-231 breast) [µM]
O[C@]12c3ccccc3C1CCCCC2N1CCOCC1 (stereo partly drawn),> 100,> 100,> 100,> 100,> 100,> 100,> 100,> 100,–,–
O=C([O-])C1([n+]2c(-c3ccccc3)cc(-c3ccccc3)cc2-c2ccccc2)CC1,> 100,68.4,67.7,> 100,> 100,> 100,> 100,> 100,> 100,–
Cc1ccc2oc3c(ccc(=O)n3C)c(=O)c2c1,–,> 100,> 100,> 100,> 100,> 100,> 100,> 100,> 100,> 100
O=S(=O)(/N=C(\NO)Nc1ccc(Cl)cc1)c1cc(S(=O)(=O)c2ccccc2)cs1,39,7.19,43.1,93.1,49.2,36.7,25.2,–,> 100,56.1
CC(C)(CC1(C)NC(=O)NC1=O)OCc1ccccc1 (stereo not drawn),> 100,–,> 100,> 100,> 100,> 100,> 100,> 100,> 100,> 100
Nc1ncc(Sc2ccccc2C(=O)O)s1,> 100,> 100,> 100,> 100,> 100,> 100,–,> 100,> 100,> 100
COc1cccc(/C=N/[N-]C(N)=O)c1[O-].[OH3+].[Pd+2],> 100,–,> 100,> 100,> 100,> 100,> 100,> 100,–,–
O=C(O)c1ccccc1CC(Cc1ccccc1)C(=O)O (stereo not drawn),> 100,> 100,–,> 100,> 100,> 100,> 100,> 100,> 100,> 100
N#Cc1c(N)nc2n[nH]c(N)c2c1-c1ccccc1,> 83.6,71.1,8.02,> 65.5,> 100,41.8,18,–,48.5,38.7
Nc1ncnc2c1N=C(c1ccccc1)CC(c1ccccc1)N2 (stereo not drawn),> 100,–,> 100,> 100,> 100,> 100,> 100,> 100,> 100,> 100
O=C1CC(=O)NC(=NN2C(=O)/C(=C/c3ccc(Cl)cc3)N=C2c2ccccc2)N1,42,–,25.6,30,31.9,30.5,23.5,60.2,31.8,35.6
CCOC(=O)[C@@H]1C[C@@H]1c1ccc(O)c(O)c1,> 100,–,27,> 100,42.2,52.2,26.5,–,> 100,27.8
CCOc1cc2c(cc1O)CC[C@@H]1[C@@H]2CC[C@]2(C)[C@@H](O)CC[C@@H]12,–,0.352,19.7,48.1,> 100,33.5,0.0197,–,8.98,6.67
CC1(CCCCO)C=CC(S(=O)(=O)c2ccccc2)CC1 (stereo not drawn),10.9,–,18.3,13.6,20.6,23.2,10.4,13.3,12.5,16.4
CC1=CC(=O)c2c(O)c3c(c(O)c2C1=O)C1C(O)C(C3=O)C23C(=O)c4c(O)c(C)cc(O)c4C(O)=C2C(=O)CC(O)C13 (stereo not drawn),3.5,> 100,3.24,10.8,12.2,8.65,–,9.1,–,9.89
COc1cccc2c1[C@H]1OC(=O)NC1CCCCC2 (stereo partly drawn),> 100,> 100,> 100,> 100,> 100,> 100,> 100,> 100,–,–
CCCCCC(/C=C/[C@@H]1[C@@H](C(O)CCCCCC(=O)OC)C(=O)C[C@H]1O[Si](C)(C)C(C)(C)C)OCOCCOC (stereo partly drawn),21.9,–,27.5,> 68.2,29.3,42.8,14.5,22.2,51.8,44.1
COc1ccc2c(C(=O)c3c(C)n(CCN4CCOCC4)c4ccccc34)cccc2c1,97.9,23.4,> 100,> 100,55.4,59.4,50.2,–,55.9,80.2
COCCOCCOCCC(=O)NC1CC2CCC1(C)C2(C)C (stereo not drawn),> 100,> 100,> 100,> 100,> 100,> 100,–,> 100,> 100,> 100
CCCCOc1ccc(S(=O)(=O)/N=C(\N)Nc2ccc(Cl)cc2)cc1,27.1,–,27.1,45.8,32.3,29.9,23,36.3,31.5,29.7
C=CCCCCCCCCC(=O)ON(Cc1ccc(O)c(OC)c1)C(=O)C(F)(F)F,> 100,> 100,> 100,> 100,> 100,> 100,–,> 100,> 100,> 100
O=C1c2ccccc2-n2c1nc1ccc(Cl)cc1c2=O,> 100,–,92.7,> 100,> 100,> 100,–,75.5,> 100,> 100
CCCCOCCOCCOC1=C(Cl)C(=O)c2c(O)ccc(O)c2C1=O,2.6,–,3.47,4.14,1.75,7.43,–,1.25,7.49,1.32
